Assay results: publication PMC5379127, “Plackett-Burman Design for rGILCC1 Laccase Activity Enhancement in Pichia pastoris: Concentrated Enzyme Kinetic Characterization” (Enzyme Research, 2017)

Test system: T1, rGILCC1 laccase (GlLCC1)
T1 construct: previously optimized synthetic gene in pGAPZalphaA (pGAPZαA-LacGluc-Stop, also pGAPZαA-GlucPost-Stop, clone 1), secreted by Pichia pastoris X33; concentrated culture supernatant (10 kDa membrane), not purified
Assay: spectrophotometric ABTS oxidation at […] nm, Hanes-Woolf
Format: biochemical, Ganoderma lucidum
Settings: concentrated culture supernatant, not pure enzyme; 600 mM sodium acetate buffer, pH 4.5, 25°C; read-out: apparent Km

Q: How did the Km turn out when `CCn1c(=NN=c2sc3cc(S(=O)(=O)O)ccc3n2CC)sc2cc(S(=O)(=O)O)ccc21` [ABTS, 2,20-azino-bis(3-ethylbenzothiazoline-6-sulphonic acid)] was run?
A: 53.6 µM
